Assay results from ChEMBL document CHEMBL1201862, “PubChem BioAssay data set” (2004).
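Briefly, cells in 96-well plates were exposed to five compound concentrations for 48 h, and endpoints were estimated by linear interpolation. Here, GI50 denotes the concentration required for 50% inhibition of growth.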 Activity calls are given as the source filed them. Cut-off read from the data, not from the text of the source: active = GI50 up to about 1.1 µM and inactive = higher.

Assays:
Assay in all cases: growth of human tumour cells (NCI), 48 h
[1] = test system: SN12C
[2] = test system: HOP-62
[3] = test system: UACC-257
[4] = test system: SNB-19
[5] = test system: TK-10
[6] = test system: RPMI-8226
[7] = test system: K562
[8] = test system: HL-60
[9] = test system: A498
[10] = test system: SK-OV-3
[11] = test system: IGROV-1
[12] = test system: NCI-H23
[13] = test system: SF-539
[14] = test system: HCC 2998

Measured: GI50

C=CCN(N=O)C(=O)N(CCC)CCCC(NC(C)=O)C(=O)NCc1ccccc1 (stereo unspecified)
inactive: [1] > 100 µM | [2] > 100 µM | [3] > 100 µM | [4] > 100 µM | [5] > 100 µM | [6] > 100 µM | [7] > 100 µM | [8] > 100 µM | [9] > 100 µM | [10] > 100 µM | [11] > 100 µM | [12] > 100 µM | [13] > 100 µM

CCOc1ccc(NC(=O)CCC(=O)NN)cc1
inactive: [1] 94 µM | [2] > 100 µM | [3] > 100 µM | [4] > 100 µM | [5] > 100 µM | [6] > 100 µM | [7] > 100 µM | [8] > 100 µM | [12] > 100 µM | [14] > 100 µM

CC1CC(c2ccccc2)=Nc2ccccc2S1(=O)=O (stereo unspecified)
inactive: [1] 16.6 µM | [2] 20.3 µM | [3] 11.6 µM | [4] 14.3 µM | [5] 23 µM | [6] 2.16 µM | [7] 19.4 µM | [8] 21 µM | [9] 14.8 µM | [10] 19.7 µM | [11] 17.7 µM | [12] 16.6 µM | [14] 5.2 µM | [13] 18.4 µM

O=C(/C=C1/NC(=O)CS1)Nc1ccccc1
inactive: [1] > 100 µM | [2] > 100 µM | [4] > 100 µM | [5] > 100 µM | [6] > 100 µM | [7] > 100 µM | [8] > 100 µM | [9] > 100 µM | [10] > 100 µM | [11] > 100 µM | [12] > 100 µM | [14] > 100 µM | [13] > 100 µM

COc1ccc(NC(=O)NS(=O)(=O)c2ccc(C)cc2)nn1
inactive: [1] > 100 µM | [2] > 100 µM | [3] > 100 µM | [4] > 100 µM | [5] > 100 µM | [6] > 100 µM | [7] > 100 µM | [8] > 100 µM | [9] > 100 µM | [10] > 100 µM | [11] > 100 µM | [12] > 100 µM | [14] > 100 µM | [13] > 100 µM

Cc1cc2c(c(C(=O)O)c1C)-c1cccc(Cl)c1C2=O
inactive: [1] > 100 µM | [2] > 100 µM | [3] > 100 µM | [4] > 100 µM | [5] > 100 µM | [6] > 100 µM | [7] > 100 µM | [10] > 100 µM | [11] > 100 µM | [12] > 100 µM | [14] > 100 µM

C=CCN(N=O)C(=O)N(CCCC(NC(C)=O)C(=O)NCc1ccccc1)Cc1ccccc1 (stereo unspecified)
inactive: [1] 67.6 µM | [2] > 100 µM | [3] 57.7 µM | [4] 82.6 µM | [5] 87.1 µM | [6] 18.2 µM | [7] 37 µM | [8] 19.6 µM | [9] 99.3 µM | [10] > 100 µM | [11] > 100 µM | [12] > 100 µM | [13] 37.2 µM

CCN(CC)c1ccc(/N=C2/C=CC(=C(C#N)C#N)c3ccccc32)c(C)c1
inactive: [1] 2.53 µM | [2] 2.2 µM | [3] 2.16 µM | [4] 3.78 µM | [5] 3.25 µM | [6] 1.38 µM | [7] 1.56 µM | [8] 1.26 µM | [10] 3.83 µM | [11] 2.73 µM | [12] 1.58 µM

Cc1cc(Cl)ccc1NC(=O)CCCC(=O)C1CCC/C1=N\NC(=O)CC#N (stereo unspecified)
inactive: [1] > 100 µM | [3] > 100 µM | [4] > 100 µM | [5] > 100 µM | [6] 75.3 µM | [7] > 100 µM | [8] > 100 µM | [9] > 100 µM | [10] > 100 µM | [11] > 100 µM | [12] > 100 µM | [13] > 100 µM
